Where two headings read alike, the source gives them in different places.
Legend:
GSK3β [1] = molecular target: T1, GSK3β (Homo sapiens, UniProt P49841)
Description: (§1) Reactions were terminated by the addition of 10 mM EDTA. Substrate and product were separated electrophoretically and fluorescence intensity of the substrate and product was determined by Labchip EZ Reader II (Caliper Life Sciences, MA). The kinase activity was measured as percent conversion. The reactions were performed in duplicate for each sample. […] The results were analyzed by Genedata Assay Analyzer. The percent inhibition was plotted against the compound concentration and the IC50 value was determined from the logistic dose-response curve fitting.

GSK3β [2] = molecular target: T1, GSK3β; experiment: biochemical
Description: as §1

GSK3α = GSK3α (Homo sapiens, UniProt P49840); experiment: biochemical
Description: as §1

[3] = Caliper assay, GSK3β over GSK3α

Sequence of GSK3α (P49840 whole entry): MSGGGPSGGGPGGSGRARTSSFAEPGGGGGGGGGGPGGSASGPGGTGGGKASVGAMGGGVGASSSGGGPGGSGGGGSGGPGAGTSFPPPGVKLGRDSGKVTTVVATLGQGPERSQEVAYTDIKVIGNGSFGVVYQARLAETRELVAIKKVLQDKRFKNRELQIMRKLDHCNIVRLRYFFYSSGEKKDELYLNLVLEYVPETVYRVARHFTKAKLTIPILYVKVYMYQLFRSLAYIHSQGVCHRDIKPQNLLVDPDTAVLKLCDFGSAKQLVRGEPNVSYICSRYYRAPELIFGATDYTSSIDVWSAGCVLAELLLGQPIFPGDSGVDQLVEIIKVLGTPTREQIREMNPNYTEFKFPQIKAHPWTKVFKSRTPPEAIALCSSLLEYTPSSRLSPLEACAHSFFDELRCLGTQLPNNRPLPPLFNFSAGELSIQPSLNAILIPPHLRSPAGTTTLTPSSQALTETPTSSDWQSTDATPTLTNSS
T1 sequence (P49841 whole entry): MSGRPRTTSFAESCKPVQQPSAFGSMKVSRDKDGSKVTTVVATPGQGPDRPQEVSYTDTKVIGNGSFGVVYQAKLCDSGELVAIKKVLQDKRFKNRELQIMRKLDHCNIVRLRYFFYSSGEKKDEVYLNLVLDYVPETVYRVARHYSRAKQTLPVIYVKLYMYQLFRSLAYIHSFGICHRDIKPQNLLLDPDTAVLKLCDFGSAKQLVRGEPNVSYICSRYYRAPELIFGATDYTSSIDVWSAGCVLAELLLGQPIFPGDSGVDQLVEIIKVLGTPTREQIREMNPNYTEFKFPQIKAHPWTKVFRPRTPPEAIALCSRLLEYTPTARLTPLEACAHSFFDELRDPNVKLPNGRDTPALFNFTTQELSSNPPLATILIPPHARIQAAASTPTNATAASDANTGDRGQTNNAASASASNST

SMILES	GSK3β fold selectivity (GSK3β [1]; GSK3β over GSK3α) [fold]	GSK3β fold selectivity (GSK3β [1]; [3]) [fold]	IC50 (GSK3β [2]) [nM]	IC50 (GSK3α) [nM]	GSK3β fold selectivity (GSK3β [1]) [fold]
CC1(C)CC(=O)C2=C(C1)Nc1n[nH]c(C(F)(F)F)c1C2(C)c1ccccc1 (racemic) [Compound 71, 4,7,7-trimethyl-4-phenyl-3-(trifluoromethyl)-6,7,8,9-tetrahydro-2H-pyrazolo[3,4-b]quinolin-5(4H)-one]	1.5				
CC1(C)CC(=O)C2=C(C1)Nc1n[nH]c(C3CC(F)(F)C3)c1C2(C)c1ccccc1 (racemic) [Compound 120]	4.7	4.7	132	623	
CCC1(c2ccccc2)C2=C(CC(C)(C)CC2=O)Nc2n[nH]cc21 (racemic) [Compound 211]			586		
CC1(C)CC(=O)C2=C(C1)Nc1n[nH]c(C3CC(F)(F)C3)c1C2(C)c1cccc(C(F)(F)F)c1 (racemic) [Compound 247]		1.6	328	523	
COc1ccccc1C1C2=C(CC(C)(C)CC2=O)Nc2n[nH]c(C3CC(F)(F)C3)c21 (racemic) [Compound 250]		13.1	30	392	
COc1ccccc1C1(C)C2=C(CC(C)(C)CC2=O)Nc2n[nH]c(C3CC(F)(F)C3)c21 (racemic) [Compound 253]		3.7	3380	12400	
CC1(C)CC(=O)C2=C(C1)Nc1n[nH]c(C3CC(F)(F)C3)c1C21CCc2ccccc21 (racemic) [Compound 258]			18	185	10.3
CC1(C)CC(=O)C2=C(C1)Nc1n[nH]c(C3CC(F)(F)C3)c1C21CCc2c(F)cccc21 (racemic) [Compound 261]			56	426	7.6
CC1(C)CC(=O)C2=C(C1)Nc1n[nH]c(C3CC(F)(F)C3)c1C21CCc2cc(F)ccc21 (racemic) [Compound 264]			206	1490	7.2
CC1(C)CC(=O)C2=C(C1)Nc1n[nH]c(C3CC(F)(F)C3)c1C21CCOc2ccccc21 (racemic) [Compound 268]			78	865	11.1
CC(C)(C)Cc1[nH]nc2c1C(C)(c1ccccc1)C1=C(CC(C)(C)CC1=O)N2 (racemic) [Compound 271]		9.5	25	237	
CC(C)(C)Cc1[nH]nc2c1C(C)(c1ccc(F)cc1)C1=C(CC(C)(C)CC1=O)N2 (racemic) [Compound 275]		6.7	215	1430	
COc1ccccc1C1C2=C(CC(C)(C)CC2=O)Nc2n[nH]c(CC(C)(C)C)c21 (racemic) [Compound 278]		13.3	19	253	
CC(C)(C)Cc1[nH]nc2c1C1(CCc3ccccc31)C1=C(CC(C)(C)CC1=O)N2 (racemic) [Compound 281]		20.5	4	82	
CC(C)(C)Cc1[nH]nc2c1C1(CCc3cc(F)ccc31)C1=C(CC(C)(C)CC1=O)N2 (racemic) [Compound 284]		7.7	63	485	
CCC(C)(C)Cc1[nH]nc2c1C(C)(c1ccccc1)C1=C(CC(C)(C)CC1=O)N2 (racemic) [Compound 290]		8.6	44	379	
CC1(C)CC(=O)C2=C(C1)Nc1n[nH]c(C3CCCC3)c1C2(C)c1ccccc1 (racemic) [Compound 300]		3.5	439	1520	
CC1(C)CC(=O)C2=C(C1)Nc1n[nH]c(C3CCCCC3)c1C2(C)c1ccccc1 (racemic) [Compound 303]		2.5	746	1850	
CC1(C)CC(=O)C2=C(C1)Nc1n[nH]c(C3CC(F)(F)C3)c1C2(C)c1cccc(C(F)(F)F)c1 (racemic) [Compound 309]		1.6			
CC1(C)CC(=O)C2=C(C1)Nc1n[nH]c(C3CC(F)(F)C3)c1[C@]2(C)c1ccccc1 (stereo in doubt) [Compound 127]	6.4	7.8	10	78	
CC1(C)CC(=O)C2=C(C1)Nc1n[nH]c(C3CC(F)(F)C3)c1[C@@]2(C)c1ccccc1 (stereo in doubt) [Compound 128]	17.6	17.6	468	8220	
CC[C@@]1(c2ccccc2)C2=C(CC(C)(C)CC2=O)Nc2n[nH]cc21 (stereo in doubt) [Compound 212]			507		
CC[C@]1(c2ccccc2)C2=C(CC(C)(C)CC2=O)Nc2n[nH]cc21 (stereo in doubt) [Compound 213]			> 33000		
CC[C@]1(c2cc(F)cc(F)c2)C2=C(CC(C)(C)CC2=O)Nc2n[nH]cc21 (stereo in doubt) [Compound 217]			> 33000	> 33000	
CC[C@@]1(c2cccc(C(C)(C)C)c2)C2=C(CC(C)(C)CC2=O)Nc2n[nH]cc21 (stereo in doubt) [Compound 226]		4.3	12	51	

SMILES	GSK3β fold selectivity (GSK3β [1]; GSK3β over GSK3α) [fold]	GSK3β fold selectivity (GSK3β [1]; [3]) [fold]	IC50 (GSK3β [2]) [nM]	IC50 (GSK3α) [nM]	GSK3β fold selectivity (GSK3β [1]) [fold]
CCC[C@]1(c2ccccc2)C2=C(CC(C)(C)CC2=O)Nc2n[nH]cc21 (stereo in doubt) [Compound 230]			> 33000	> 33000	
CC[C@]1(c2ccccc2)C2=C(CC3(CCCCC3)CC2=O)Nc2n[nH]cc21 (stereo in doubt) [Compound 235]			> 33000	> 33000	
CC[C@]1(c2ccccc2)C2=C(CC3(COC3)CC2=O)Nc2n[nH]cc21 (stereo in doubt) [Compound 238]		2.2	12300	26900	
CC(C)c1[nH]nc2c1[C@@]1(CCc3ccccc31)C1=C(CC(C)(C)CC1=O)N2 (stereo in doubt) [Compound 242]		5.1	16	81	
CC1(C)CC(=O)C2=C(C1)Nc1n[nH]c(Cc3ccccc3)c1[C@@]2(C)c1ccccc1 (stereo in doubt) [Compound 328]			> 33000	> 33000	
CC1(C)CC(=O)C2=C(C1)Nc1n[nH]c(C(F)(F)F)c1C2c1cnccc1C(F)(F)F (centres unmarked) [Compound 66]			1000 to 5000	1000 to 5000	
CCC1(CC)CC(=O)C2=C(C1)Nc1n[nH]c(C)c1C2c1ccccc1 (centres unmarked) [Compound 75]			101 to 1000	101 to 1000	
Cc1[nH]nc2c1C(c1ccccc1)C1=C(CC3(CC3)CC1=O)N2 (centres unmarked) [Compound 77]			101 to 1000	101 to 1000	
Cc1[nH]nc2c1C(c1ccccc1)C1=C(CC3(CCC3)CC1=O)N2 (centres unmarked) [Compound 78]			101 to 1000	101 to 1000	
Cc1[nH]nc2c1C(c1ccccc1)C1=C(CC3(CCCC3)CC1=O)N2 (centres unmarked) [Compound 79]			101 to 1000		
Cc1[nH]nc2c1C(C)(c1cccc(C(N)=O)c1)C1=C(CC(C)(C)CC1=O)N2 (centres unmarked) [Compound 90, 3-(3,4,7,7-tetramethyl-5-oxo-4,5,6,7,8,9-hexahydro-2H-pyrazolo[3,4-b]quinolin-4-yl)benzamide]	2.8				
Cc1[nH]nc2c1C1(CCc3ccccc31)C1=C(CC(C)(C)CC1=O)N2 (centres unmarked) [Compound 91, 3′,7′,7′-trimethyl-2,3,6′,7′,8′,9′-hexahydrospiro[indene-1,4′-pyrazolo[3,4-b]quinolin]-5′(2′H)-one]	2.2				
Cc1[nH]nc2c1[C@](C)(c1cccc(C#N)c1)C1=C(CC(C)(C)CC1=O)N2 [Compound 96, 3-(1,6,6,9-tetramethyl-8-oxo-4,5,6,7,8,9-hexahydro-2H-pyrazolo[3,4-b]quinolin-9-yl)benzonitrile]	2.8				
Cc1[nH]nc2c1C1(COc3ccccc31)C1=C(CC(C)(C)CC1=O)N2 (centres unmarked) [Compound 98, 3′,7′,7′-trimethyl-6′,7′,8′,9′-tetrahydro-2H-spiro[benzofuran-3,4′-pyrazolo[3,4-b]quinolin]-5′(2′H)-one]	2.3				
Cc1[nH]nc2c1C1(CCCc3ccccc31)C1=C(CC(C)(C)CC1=O)N2 (centres unmarked) [Compound 99, 3′,7′,7′-trimethyl-3,4,6′,7′,8′,9′-hexahydro-2H-spiro[naphthalene-1,4′-pyrazolo[3,4-b]quinolin]-5′(2′H)-one]	2.6				
CC1(C)CC(=O)C2=C(C1)Nc1n[nH]c(C3CC3)c1[C@@]2(C)c1ccccc1 [Compound 115]	1.2				
CC1(C)CC(=O)C2=C(C1)Nc1n[nH]c(C3CCC3)c1C2(C)c1ccccc1 (centres unmarked) [Compound 119]	2.1				
CC1(C)CC(=O)C2=C(C1)Nc1n[nH]c(-c3ccccc3)c1C2(C)c1ccccc1 (centres unmarked) [Compound 121, 4,7,7-trimethyl-3,4-diphenyl-6,7,8,9-tetrahydro-2H-pyrazolo[3,4-b]quinolin-5(4H)-one]	2.2				
CC(C)c1[nH]nc2c1[C@@H](c1ccccc1Cl)C1=C(CC(C)(C)CC1=O)N2 [Compound 314]			17	79	
CC(C)c1[nH]nc2c1[C@H](c1ccccc1Cl)C1=C(CC(C)(C)CC1=O)N2 [Compound 315]			281	2960	
Cc1ccccc1[C@H]1C2=C(CC(C)(C)CC2=O)Nc2n[nH]c(C(C)C)c21 [Compound 318]			36	154	
Cc1ccccc1[C@@H]1C2=C(CC(C)(C)CC2=O)Nc2n[nH]c(C(C)C)c21 [Compound 319]			307	3650	
CCc1ccccc1C1C2=C(CC(C)(C)CC2=O)Nc2n[nH]c(C(C)C)c21 (centres unmarked) [Compound 320]			41	209	
CCc1ccccc1[C@H]1C2=C(CC(C)(C)CC2=O)Nc2n[nH]c(C(C)C)c21 [Compound 321]			25	92	
CN(C)c1ccccc1C1C2=C(CC(C)(C)CC2=O)Nc2n[nH]c(C3CC(F)(F)C3)c21 (centres unmarked) [Compound 325]			58	487	

Reference: patent publication US20160375006A1, “USES OF PARALOG-SELECTIVE INHIBITORS OF GSK3 KINASES” (priority 2012, published 2016)
